Measurements published in patent publication US20170232043A1, “BACTERIA ENGINEERED TO TREAT DISORDERS INVOLVING THE CATABOLISM OF A BRANCHED CHAIN AMINO ACID” (priority 2015, published 2017).

How the values were obtained:
[1] = system: ATC-inducible Ptet-GFP reporter construct; assay: ATC-inducible Ptet-GFP reporter construct, fluorescence in plate reader (Example 28); assay type: cell-based, E. coli Nissle; settings: two-fold decreased inducer, across a range of concentrations
[2] = system: Pm1: amino acid deaminase gene from P. mirabilis KCTC 2566; settings: relative within the enzyme; cited from earlier work
[3] = system: LAD: L-amino acid deaminase of P. vulgaris; settings: relative within the enzyme; cited from earlier work
[4] = system: Pma: amino acid deaminase gene from P. mirabilis; settings: relative within the enzyme; cited from earlier work
rat = settings: cited from earlier work
LivK = LivK (Escherichia coli, UniProt P04816); settings: cited from earlier work
[5] = system: nitric oxide inducible PnsrR-GFP reporter construct; assay: Nitric oxide inducible PnsrR-GFP reporter construct, fluorescence in plate reader (Example 28); assay type: cell-based, E. coli Nissle; settings: DETA-NO as NO donor, two-fold decreased inducer, across a range of concentrations
leucine = assay: in vitro leucine degradation assay (leucine in culture medium by LC-MS/MS); assay type: cell-based, E. coli Nissle

LivK, sequence (P04816 24-369): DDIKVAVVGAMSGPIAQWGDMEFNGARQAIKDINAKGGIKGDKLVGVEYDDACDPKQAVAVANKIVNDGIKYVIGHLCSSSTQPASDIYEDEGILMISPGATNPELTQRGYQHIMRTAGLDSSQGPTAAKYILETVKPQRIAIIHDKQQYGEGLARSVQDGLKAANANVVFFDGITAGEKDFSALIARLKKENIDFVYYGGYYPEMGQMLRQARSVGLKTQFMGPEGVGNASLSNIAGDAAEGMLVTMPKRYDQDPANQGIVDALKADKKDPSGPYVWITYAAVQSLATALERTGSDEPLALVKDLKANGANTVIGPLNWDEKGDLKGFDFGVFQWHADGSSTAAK

Cc1c2c(c(O)c3c(O)cccc13)C(=O)[C@]1(O)C(=O)C(C(N)=O)=C(O)[C@@H](N(C)C)[C@@H]1C2 [ATC, anhydrotetracycline]
expression of GFP (relative florescence units) [1]: able to induce the expression of GFP

C[C@H](N)C(=O)O [Ala]
amino acid deaminase activity of Pm1, percentage [2]: 9% | amino acid deaminase activity of LAD, percentage [3]: 3.5% | amino acid deaminase activity of Pma, percentage [4]: 0.6%

N=C(N)NCCC[C@H](N)C(=O)O [Arg]
amino acid deaminase activity of Pm1, percentage [2]: 51.2% | amino acid deaminase activity of LAD, percentage [3]: 27.3% | amino acid deaminase activity of Pma, percentage [4]: 28.2%

NC(=O)C[C@H](N)C(=O)O [Asn]
amino acid deaminase activity of Pm1, percentage [2]: 5.2% | amino acid deaminase activity of LAD, percentage [3]: 43.6% | amino acid deaminase activity of Pma, percentage [4]: 0%

N[C@@H](CC(=O)O)C(=O)O [Asp]
amino acid deaminase activity of Pm1, percentage [2]: 2.6% | amino acid deaminase activity of LAD, percentage [3]: 55.4% | amino acid deaminase activity of Pma, percentage [4]: 10.9%

N[C@@H](CS)C(=O)O [Cys]
amino acid deaminase activity of Pm1, percentage [2]: 9% | amino acid deaminase activity of Pma, percentage [4]: 1.9%

NC(=O)CC[C@H](N)C(=O)O [Gln]
amino acid deaminase activity of Pm1, percentage [2]: 5.2% | amino acid deaminase activity of LAD, percentage [3]: 1.1% | amino acid deaminase activity of Pma, percentage [4]: 1.3%

N[C@@H](CCC(=O)O)C(=O)O [Glu]
amino acid deaminase activity of Pm1, percentage [2]: 35.8% | amino acid deaminase activity of LAD, percentage [3]: 1.1% | amino acid deaminase activity of Pma, percentage [4]: 0.6%

NCC(=O)O [Gly]
amino acid deaminase activity of Pm1, percentage [2]: 7.6% | amino acid deaminase activity of Pma, percentage [4]: 1.3%

N[C@@H](Cc1c[nH]cn1)C(=O)O [His]
amino acid deaminase activity of Pm1, percentage [2]: 100% | amino acid deaminase activity of LAD, percentage [3]: 79.9% | amino acid deaminase activity of Pma, percentage [4]: 0%

CC[C@H](C)[C@H](N)C(=O)O [Ilu, isoleucine]
amino acid deaminase activity of Pm1, percentage [2]: 6.4% | amino acid deaminase activity of Pma, percentage [4]: 2.6%

CC(C)CO [Isobutanol]
Oral NOAEL* (rat) (rat; No-Observed-Adverse-Effect): >1450 mg/kg/day

CC(C)CCO [Isopentanol]
Oral LD50 (rat) (rat): >5000 mg/kg

CC(C)C[C@H](N)C(=O)O [Leu, leucine]
amino acid deaminase activity of Pm1, percentage [2]: 7.6% | amino acid deaminase activity of LAD, percentage [3]: 105% | amino acid deaminase activity of Pma, percentage [4]: 41.7% | Kd (LivK): ~1000 nM

NCCCC[C@H](N)C(=O)O [Lys]
amino acid deaminase activity of Pm1, percentage [2]: 7.6% | amino acid deaminase activity of LAD, percentage [3]: 3.5% | amino acid deaminase activity of Pma, percentage [4]: 1.9%

CSCC[C@H](N)C(=O)O [Met]
amino acid deaminase activity of Pm1, percentage [2]: 2.6% | amino acid deaminase activity of LAD, percentage [3]: 100% | amino acid deaminase activity of Pma, percentage [4]: 16.7%

NCCN(CCN)[N+]([O-])=NO [NO]
expression of GFP (relative florescence units) [5]: able to induce the expression of GFP

N[C@@H](Cc1ccccc1)C(=O)O [Phe]
amino acid deaminase activity of Pm1, percentage [2]: 46.2% | amino acid deaminase activity of LAD, percentage [3]: 37.4% | amino acid deaminase activity of Pma, percentage [4]: 100%

O=C(O)[C@@H]1CCCN1 [Pro]
amino acid deaminase activity of Pm1, percentage [2]: 14.2% | amino acid deaminase activity of LAD, percentage [3]: 0.7% | amino acid deaminase activity of Pma, percentage [4]: 3.2%

N[C@@H](CO)C(=O)O [Ser]
amino acid deaminase activity of Pm1, percentage [2]: 3.8% | amino acid deaminase activity of Pma, percentage [4]: 1.3%

C[C@@H](O)[C@H](N)C(=O)O [Thr]
amino acid deaminase activity of Pm1, percentage [2]: 12.8% | amino acid deaminase activity of LAD, percentage [3]: 1.1% | amino acid deaminase activity of Pma, percentage [4]: 0%

N[C@@H](Cc1c[nH]c2ccccc12)C(=O)O [Trp]
amino acid deaminase activity of Pm1, percentage [2]: 10.2% | amino acid deaminase activity of LAD, percentage [3]: 41.6% | amino acid deaminase activity of Pma, percentage [4]: 3.2%

N[C@@H](Cc1ccc(O)cc1)C(=O)O [Tyr]
amino acid deaminase activity of Pm1, percentage [2]: 9% | amino acid deaminase activity of LAD, percentage [3]: 92.8% | amino acid deaminase activity of Pma, percentage [4]: 0.6%

CC(C)[C@H](N)C(=O)O [Val, valine]
amino acid deaminase activity of Pm1, percentage [2]: 6.4% | amino acid deaminase activity of Pma, percentage [4]: 1.3%

B1: LAADPm: L-AAD derived from P. mirabilis (protein)
chain: MAISRRKFILGGTVVAVAAGAGVLTPMLTREGRFVPGTPRHGFVEGTGGPLPKQDDVVVIGAGILGIMTAINLAERGLSVTIVEKGNIAGEQSSRFYGQAISYKMPDETFLLHHLGKHRWREMNAKVGIDTTYRTQGRVEVPLDEEDLENVRKWIDAKSKDVGSDIPFRTKMIEGAELKQRLRGATTDWKIAGFEEDSGSFDPEVATFVMAEYAKKMGIKIFTNCAARGLETQAGVISDVVTEKGPIKTSRVVVAGGVGSRLFMQNLNVDVPTLPAYQSQQLISAAPNAPGGNVALPGGIFFRDQADGTYATSPRVIVAPVVKESFTYGYKYLPLLALPDFPVHISLNEQLINSFMQSTHWDLNEESPFEKYRDMTALPDLPELNASLEKLKKEFPAFKESTLIDQWSGAMAIAPDENPIISDVKEYPGLVINTATGWGMTESPVSAEITADLLLGKKPVLDAKPFSLYRF
modifications: Synthetic: L-AAD Nucleotide sequence
notes: L-AAD derived from P. mirabilis
leucine degradation rate, comparison of adh2, yqhD, padA and of LAADPv, LAADPm (leucine; SYN469 background, with L-AAD and kivD): good alternative to LAADPV

B2: LeuDH: leucine dehydrogenase from Pseudomonas aeruginosa, expressed in the engineered strain (protein)
chain: MFDMMDAARLEGLHLAQDPATGLKAIIAIHSTRLGPALGGCRYLPYPNDEAAIGDAIRLAQGMSYKAALAGLEQGGGKAVIIRPPHLDNRGALFEAFGRFIESLGGRYITAVDSGTSSADMDCIAQQTRHVTSTTQAGDPSPHTALGVFAGIRASAQARLGSDDLEGLRVAVQGLGHVGYALAEQLAAVGAELLVCDLDPGRVQLAVEQLGAHPLAPEALLSTPCDILAPCGLGGVLTSQSVSQLRCAAVAGAANNQLERPEVADELEARGILYAPDYVINSGGLIYVALKHRGADPHSITAHLARIPARLTEIYAHAQADHQSPARIADRLAERILYGPQ
modifications: Synthetic: leuDH codon-optimized nucleotide sequence
notes: leucine dehydrogenase from Pseudomonas aeruginosa, expressed in the engineered strain
rate of leucine degradation (leucine; background strain Nissle ΔleuE, lacZ:tet-livKHMGF): about 160 nmol/10^9 CFU/hour

B3: BrnQ: low affinity BCAA transporter (protein)
chain: MTHQLRSRDIIALGFMTFALFVGAGNIIFPPMVGLQAGEHVWTAAFGFLITAVGLPVLTVVALAKVGGGVDSLSTPIGKVAGVLLATVCYLAVGPLFATPRTATVSFEVGIAPLTGDSALPLFIYSLVYFAIVILVSLYPGKLLDTVGNFLAPLKIIALVILSVAAIIWPAGSISTATEAYQNAAFSNGFVNGYLTMDTLGAMVFGIVIVNAARSRGVTEARLLTRYTVWAGLMAGVGLTLLYLALFRLGSDSASLVDQSANGAAILHAYVQHTFGGGGSFLLAALIFIACLVTAVGLTCACAEFFAQYVPLSYRTLVFILGGFSMVVSNLGLSQLIQISVPVLTAIYPPCIALVVLSFTRSWWHNSSRVIAPPMFISLLFGILDGIKASAFSDILPSWAQRLPLAEQGLAWLMPTVVMVVLAIIWDRAAGRQVTSSAH
modifications: BCAA transporter BrnQ
rate of leucine degradation with overexpression of BrnQ (leucine; LeuE and ilvC knockout strain with leuDH-kivD-padA on high copy plasmid, tet inducible brnQ on low copy plasmid): greatly improves the rate of leucine degradation
